These results are taken from article PMC9826262, “Discovery of Benzo[d]imidazole‐6‐sulfonamides as Bromodomain and Extra‐Terminal Domain (BET) Inhibitors with Selectivity for the First Bromodomain” (Chemmedchem, 2022).

Details of data set [1]: method as in PMID 32193360. The conditions noted are these: cited from earlier work.
The next data set deals with T1, BRD3(BD1) (Homo sapiens, UniProt Q15059).
T1 construct: tested on BD1 and BD2 domains (6×His‐tagged) of each BET protein
As to the kind of experiment: TR-FRET displacement binding assay. To be noted: AlexaFluor647 derivative of 1. For orientation: In TR-FRET formats the signal depends on donor and acceptor labels being close together.

In another data set the target is T2, BRD3(BD2) (Homo sapiens, UniProt Q15059).
T2 construct: tested on BD1 and BD2 domains (6×His‐tagged) of each BET protein
T2 sequence (Q15059 306-415 limits assumed): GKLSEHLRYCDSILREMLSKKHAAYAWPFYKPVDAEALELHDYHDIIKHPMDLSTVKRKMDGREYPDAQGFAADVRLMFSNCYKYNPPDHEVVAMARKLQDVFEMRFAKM
As to the kind of experiment: TR-FRET displacement binding assay. To be noted: AlexaFluor647 derivative of 1.

Another data set has as its system HeLa cells. As to the kind of experiment: MTT cell viability assay. To be noted: 50 μM, 72 h. Format: cell-based, human. As to the method:
Cells were incubated with different compound concentrations (50 μM, 5 μM and 0.5 μM) for different times (24, 48 and 72 h) and cellular viability was determined performing an MTT (3‐(4,5‐dimethylthiazol‐2‐yl)‐2,5‐diphenyl‐2H‐tetrazolium bromide) assay.
Cell Viability Assay. HeLa cell line was cultured in DMEM supplemented with 10 % (v/v) fetal bovine serum, 100 U/mL penicillin, 100 μg/mL streptomycin, and 2 mM L‐glutamine at 37 °C in a 5 % CO2 atmosphere. Cell viability was determined using a 3‐(4,5‐dimethylthiazol‐2‐yl)‐2,5‐diphenyltetrazolium bromide (MTT) assay. […] The mitochondrial dependent reduction of MTT to formazan was used to assess cell viability. Live cells reduce yellow MTT to purple formazan. The formazan was solubilized in DMSO, and absorbance was measured at 550 nm and corrected for 620 nm background. Experiments were performed in quadruplicate and all values are expressed as the percentage of the control containing 1 % DMSO.

The next data set is described as follows: in vitro. To be noted: PAMPA, pH 7.4. As to the method: Membrane permeability was estimated by the well‐validated parallel artificial membrane permeability assay (PAMPA) technique.[17, 26]
Parallel Artificial Membrane Permeability Assay (PAMPA). Donor solution (0.2 mM) was prepared by diluting 20 mM dimethyl sulfoxide (DMSO) compound stock solution using phosphate buffer (pH 7.4, 0.01 M). Filters were coated with 5 μL of a 1 % (w/v) dodecane solution of L‐α‐phosphatidylcholine. Donor solution (150 μL) was added to each well of the filter plate. To each well of the acceptor plate, 300 μL of solution (5 % DMSO in phosphate buffer) was added. […] The sandwich was incubated for 24 h at room temperature under gentle shaking. After the incubation time, the sandwich plates were separated and 250 μL of the acceptor plate was transferred to a UV quartz microtiter plate and measured by UV spectroscopy, using a Multiskan GO microplate spectrophotometer (Thermo Fisher Scientific) at 250–500 nm at a step of 5 nm. Reference solutions (250 μL) were prepared diluting the sample stock solutions to the same concentration as that with no membrane barrier.
In this equation, VR is the volume of the acceptor compartment (0.3 cm^3), VD is the donor volume (0.15 cm^3), A is the accessible filter area (0.24 cm^2), and t is the incubation time in seconds.
A general note: PAMPA measures passive passage across an artificial lipid membrane.

Data set [2] can be described thus: Nephelometric solubility determination. Format: physicochemical. The conditions noted are these: for solubility: aqueous buffer, kinetic from dmso stock, PBS with 1 % DMSO, tested at 50 and 100 μM, room temperature, read-out: Solubility (highest concentration where no precipitate was detected). As to the method:
Solubility determination. Solubility of the compounds was determined using Nepheloskan Ascent® (Labsystems). The experiments were performed at room temperature in 96‐well plates in a final volume of 300 μL. Each compound was tested in quadruplicate at the concentrations of 50 and 100 μM in PBS with 1 % DMSO. The measurements were performed at 4 different time points (T0, 30 min, 60 min, 90 min) from the preparation of the samples. Data obtained were compared to control (PBS with 1 % DMSO) and the ratio sample/control was determined for each compound. Compounds are considered soluble if the ratio is≤3.

The next data set deals with T3, BRD2(BD1) (Homo sapiens, UniProt P25440).
T3 construct: tested on BD1 and BD2 domains (6×His‐tagged) of each BET protein
T3 sequence (P25440 74-180 limits assumed): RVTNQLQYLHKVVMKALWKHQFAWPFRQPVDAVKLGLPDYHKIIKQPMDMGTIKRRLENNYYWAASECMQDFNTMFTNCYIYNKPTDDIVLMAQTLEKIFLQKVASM
The experiment in a line: TR-FRET displacement binding assay. To be noted: AlexaFluor647 derivative of 1.

Data set [3] in a line: CYPs and UGTs dual-activity microsomal stability. It counts as in vitro ADME. To be noted: human liver microsomes; alamethicin, NADPH and UDPGA cofactors; 37 °C, 60 min. As to the method: In this study, the CYPs and UGTs “dual‐activity” microsomal stability assay was carried out to follow the loss of the test compounds over time under CYP‐ and UGT‐mediated metabolic pathways. In detail, the compounds were added to human liver microsomes in the presence of alamethicin, NADPH and UDPGA as cofactors.[24] Alamethicin, a pore‐forming peptide, was used to activate UGTs in human liver microsomes. Testosterone was used as positive control while the negative control was prepared by incubation of the compounds without cofactors up to 60 min. The negative control is essential to detect problems such as non‐specific protein binding or heat instability.
Instrumentation and chromatographic conditions. The metabolic stability of investigated compounds was monitored using a Nexera UHPLC system (Shimadzu, Kyoto, Japan) consisting of a CBM‐20A controller, two LC‐30AD pumps, an SPD‐M20A photo diode array detector, a CTO‐20AC column oven and, a SIL‐30AC autosampler. The chromatographic analyses were accomplished on a Kinetex® Evo C18 column, 150×2.1 mm×2.6 μm (Phenomenex®, Bologna, Italy) maintained at 40 °C. The optimal mobile phase consisted of 0.1 % HCOOH/H2O v/v (A) and 0.1 % HCOOH/ACN v/v (B) delivered at constant flow rate of 0.5 mL/min ^−1. Analysis was performed in gradient elution as follows: 0–8.00 min, 5–95 % B; 8.00–10.00 min, isocratic to 95 % B; then five minutes for column re‐equilibration. Data acquisition was set in the range 190–800 nm and chromatograms were monitored at 254 nm.
In vitro drug metabolism using human liver microsomes. 25 μL of 5 mg/mL human […] microsomes (Thermo Fisher Scientific, Bremen, Germany) were pre‐incubated with 0.625 μL of 100 μg/mL alamethicin. Then 2.5 μL of sample (5 mM) with 168 μL of 100 mM phosphate buffer (pH 7.4), 4 μL of 500 mM MgCl2 were added, the mixture was incubated at 37 °C for 5 min. Optimal UGT activity can be achieved by the addition of MgCl2 and alamethicin as pore forming antibiotic. These components allow for the efficient transfer of a glucuronide product and the cofactor uridine 5′‐diphospho‐α‐D‐glucuronic acid (UDPGA) within the microsomal matrix. The reaction has started by adding 50 μL of mix NADPH 20 mM and UDP‐GlcUA 20 mM as cofactors (1 : 1 v/v) and carried out 37 °C for 60 min in a Thermomixer comfort (Eppendorf, Hamburg, Germany). The reaction was stopped by the addition of 200 μL ice‐cold acetonitrile and then samples were centrifuged at 14,000 rpm at 25 °C for 5 min (Eppendorf® microcentrifuge 5424, Hamburg, Germany). The supernatants were collected and injected in UHPLC. The control at 0 min was obtained by addition of ice‐cold acetonitrile immediately after incubation with microsomes. […]

Data set [4] concerns BD1 and BD2 of BET proteins (BRD2, BRD3, BRD4 and BRDT). The experiment in a line: Protein stability shift assay (ΔTm), BET bromodomains. Format: binding. To be noted: compound 10 μM; protein 2 μM. The method, then:
The compounds were tested at 10 μM fixed dose and the pan‐BET inhibitor 1 was used as a reference compound.[22] The results obtained from this screening supported our design strategy.
Protein stability shift assay. Thermal melting experiments were carried out using an Mx3005p Real Time PCR machine (Stratagene). Proteins were buffered in 10 mM HEPES pH 7.5, 500 mM NaCl and assayed in a 96‐well plate at a final concentration of 2 μM in 20 μL volume. Compounds were added at a final concentration of 10 μM. SYPRO Orange (Molecular Probes) was added as a fluorescence probe at a dilution of 1 : 1000. Excitation and emission filters for the SYPRO‐Orange dye were set to 465 nm and 590 nm, respectively. The temperature was raised with a step of 3 °C per minute from 25 °C to 96 °C and fluorescence readings were taken at each interval. The temperature dependence of the fluorescence during the protein denaturation process was approximated by the equation yT=yF+yU-yF/1+e^ΔuGT/RT
where ΔuG(T) is the difference in unfolding free energy between the folded and unfolded state, R is the gas constant and yF and yU are the fluorescence intensity of the probe in the presence of completely folded and unfolded protein, respectively. The baselines of the denatured and native states were approximated by a linear fit. The observed temperature shifts, ΔTm obs, were recorded as the difference between the transition midpoints of sample and reference wells containing protein without ligand in the same plate and determined by non‐linear least squares fit.

Another data set concerns the target T4, BRD2(BD2) (Homo sapiens, UniProt P25440).
T4 construct: tested on BD1 and BD2 domains (6×His‐tagged) of each BET protein
The experiment in a line: TR-FRET displacement binding assay. To be noted: AlexaFluor647 derivative of 1.

A further data set has as its target T5, BRD4 BD1 (Homo sapiens, UniProt O60885).
T5 construct: The microsyringe was loaded with a solution of BRD4 BD1; His6 (cleaved yes); made in house; host or cells: E. coli BL21(DE3)-R3-pRARE2
The conditions noted are these: cited from earlier work.

Data set [5] deals with BD1 and BD2 of BRD2 and BRD3. The conditions noted are these: cited from earlier work.
The target of another data set is BRD4 BD2. To be noted: cited from earlier work.
The target in a further data set is BD1 of BET proteins. The conditions noted are these: cited from earlier work.
In a further data set the test system is BD1 (BRD3 and BRD4). The conditions noted are these: cited from earlier work.
A further data set deals with HL60 cell line. To be noted: read-out: IC50 cell growth HL60; cited from earlier work.
The subject of the next data set is THP‐1 cell line. The conditions noted are these: read-out: IC50 cell growth THP‐1; cited from earlier work.
The test system of the next data set is BD1 in all BET proteins. To be noted: cited from earlier work.
The test system of another data set is MV4‐11 cell line. To be noted: read-out: IC50 cell growth MV4‐11; cited from earlier work.

≈ marks a conversion by molar mass, not a printed value. Like-named read-outs stand apart in the source and are kept apart here.

T1 sequence (Q15059 34-140 limits assumed): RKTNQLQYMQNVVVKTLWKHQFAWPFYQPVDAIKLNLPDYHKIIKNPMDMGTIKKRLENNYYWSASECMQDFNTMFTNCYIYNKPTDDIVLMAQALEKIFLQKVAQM
T4 sequence (P25440 344-453 limits assumed): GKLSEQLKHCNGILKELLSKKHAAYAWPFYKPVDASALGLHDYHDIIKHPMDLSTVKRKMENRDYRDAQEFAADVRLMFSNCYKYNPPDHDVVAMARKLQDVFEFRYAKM
Protocol for BRD2(BD1): (§1) TR‐FRET assay. […] Compound was diluted in assay buffer (150 mM HEPES, 150 mM NaCl, 5 % glycerol, 1 mM DTT, and 1 mM CHAPS, pH 7.4), starting from a stock solution of 10 mM (100 % DMSO). The highest concentration tested was 100 μM and from this concentration 11 three‐fold dilutions were prepared. […] TR‐FRET ratio was calculated using the following equation: ratio=acceptorfluorescenceat665nm/donorfluorescenceat615nm×1000
(§2) Compound was tested in triplicate and data were analyzed using GraphPad Prism software (version 8.0) using the equation log(inhibitor) vs. normalized response‐variable slope.
Protocol for BRD2(BD2): as §1, §2
Protocol for BRD3(BD1): as §1, §2
Protocol for BRD3(BD2): as §1, §2

As to `COCc1nc2cnc3cc(-c4c(C)noc4C)c(OC[C@H]4CCNC4)cc3c2n1[C@H](C)c1ccccc1` [Compound 5, GSK778], the “Pharmacokinetic properties” value in data set [1] is “poor pharmacokinetic properties”.

For the compound `Cc1cc(-c2nc3ccc(S(=O)(=O)Nc4ccccn4)cc3[nH]2)cc(C)c1O` [9 a, 2‐(4‐hydroxy‐3,5‐dimethylphenyl)‐N‐(pyridin‐2‐yl)‐1H‐benzo[d]imidazole‐6‐sulfonamide], the IC50 at BRD3(BD1) came out at 180 ± 20 nM; on BRD3(BD2), 7000 ± 3000 nM; on BRD2(BD1), 126 ± 19 nM; at BRD2(BD2) it was 22000 ± 8000 nM. In addition, the “Decrease of cell viability” value in the data set with HeLa cells is given as “around 30%”. Moreover, the apparent permeability (Papp) at 24 h, 0.2 mM in “in vitro” came to 0.107 ×10⁻⁶ cm/s. For the same compound, the “Solubility at 100 μM” value in data set [2] (100 μM, aqueous solution with 1 % DMSO) was “still soluble”. Besides, in data set [2], the solubility amounted to 100 µM (≈ 39.4 µg/mL). For the same compound, in [3], the “CYPs and UGTs “dual‐activity” microsomal stability (percentage of the parent compound turnover)” value is reported as 1.0±0.3%. In addition, the “ΔTm screening against BET bromodomains” value in data set [4] is reported as “increase in the melting temperature of all BET proteins”.

Regarding `Cc1cc(/N=N/c2ccc(S(=O)(=O)Nc3ccc(C#N)cc3)cc2)cc(C)c1O` [7 b, MS611], the Ki on BRD4 BD1 is 410 nM; on BRD4 BD2, 41300 nM. This compound also showed a Papp at 24 h, 0.2 mM in the data set “in vitro” of 1.1 ×10⁻⁶ cm/s. In addition, the solubility in [2] came to 50 µM (≈ 20.3 µg/mL). Also, the “Selectivity between BD1 and BD2 of BRD2 and BRD3 (words)” value was “almost no selectivity between each BDs domain of BRD3 and BRD2” in data set [5]; “almost no difference in binding affinity between BD1 and BD2 of BRD2 and BRD3” in [5] (listed as MS611). Further, the “CYPs and UGTs “dual‐activity” microsomal stability (percentage of the parent compound turnover)” value in data set [3] stood at 7.5±1.0%.

`CC(=O)NCCCCn1c2c(c3ccccc31)C(=O)NCC2` [Olinone]: at BD1 of BET proteins, the dissociation constant Kd is 3400 nM.

Take `COc1ccccc1S(=O)(=O)Nc1ccc2c3c(cc(-n4cnc(C)c4)nc13)C(=O)N2C` [LT052]: in the data set on BD1 (BRD3 and BRD4) (read-out: IC50 towards BD1), the IC50 was 87.7 nM. Besides, the “Selectivity for BD1 over BD2” value with BD1 (BRD3 and BRD4) (tested against BRD3 and BRD4) is reported as “over 100 fold”.

Turning to `Cc1cc2c(-c3ccco3)cnc(N[C@@H]3CCN(C)C[C@H]3C(=O)NC3CCCCC3)c2[nH]c1=O` [Compound 6, GSK789], the IC50 was 390 nM in the data set on HL60 cell line, 258 nM with THP‐1 cell line, 30 nM in the data set on BD1 in all BET proteins and 25 nM in the data set with MV4‐11 cell line. Also, the “Selectivity for BD1 over BD2 in all BET proteins” value in the data set on BD1 in all BET proteins is 1000 fold.

One may read the IC50 as the concentration at which inhibition is half-maximal. Broadly, the Papp is the rate of passage across a membrane or cell layer, normalised by area and donor concentration. A lower Papp goes with slow passage. As a reminder, the Ki is a measure of affinity in units of concentration, obtained from inhibition or displacement. For orientation: Kd means the constant that tells how readily two partners part at equilibrium.
